Laboratory results reported in US8133849B2, “Herbicidal compounds” (Syngenta Limited, priority 2007, dated 2012).

Tests used:
Assay in all cases: Example B2 herbicidal action, post-emergence, pots in glasshouse, damage score 0-10
Type in all cases: in vivo
Details in all cases: application post-emergence, rate 1000 g/ha, evaluated after 13 days
Amaranthus retroflexus = tested on: Amaranthus retroflexus
Method: (§1) Seeds of a variety of test species were sown in standard soil in pots. After 8 days cultivation (post-emergence) under controlled conditions in a glasshouse (at 24/16° C., day/night; 14 hours light; 65% humidity), the plants were sprayed with an aqueous spray solution derived from the formulation of the technical active ingredient in acetone/water (50:50) solution containing 0.5% Tween 20 (polyoxyethelyene sorbitan monolaurate, CAS RN 9005-64-5). The test plants were then grown in a glasshouse under controlled conditions in a glasshouse (at 24/16° C., day/night; 14 hours light; 65% humidity) and watered twice daily. After 13 days, the test was evaluated (10=total damage to plant; 0=no damage to plant).

Echinochloa crus-galli = tested on: Echinochloa crus-galli
Method: as §1

Ipomea hederaceae = tested on: Ipomea hederaceae
Method: as §1

Setaria faberi = tested on: Setaria faberi
Method: as §1

Solanum nigrum = tested on: Solanum nigrum
Method: as §1

Row | Compound | AMARE damage score (10=total damage to plant; 0=no damage to plant) (Amaranthus retroflexus) | ECHCG damage score (10=total damage to plant; 0=no damage to plant) (Echinochloa crus-galli) | IPOHE damage score (10=total damage to plant; 0=no damage to plant) (Ipomea hederaceae) | SETFA damage score (10=total damage to plant; 0=no damage to plant) (Setaria faberi) | SOLNI damage score (10=total damage to plant; 0=no damage to plant) (Solanum nigrum)
1 | CC(C)C(=O)OC1=C(c2cc(C(F)(F)F)ccc2Cl)S(=O)(=O)N(C=CCl)c2nccnc21 (mixture of isomers) [Compound C114] | 4 | 0 | 6 | 2 | 10
2 | COCN1c2nccnc2C(OC(=O)C(C)(C)C)=C(c2ccc(Cl)cc2Cl)S1(=O)=O [Compound C11] | 1 | 3 | 2 | 4 | 6
3 | CCN1c2nccnc2C(OC(=O)C(C)C)=C(c2ccccc2OC(F)(F)F)S1(=O)=O [Compound C13] | 10 | 10 | 10 | 3 | 9
4 | CCN1c2nccnc2C(OC(=O)C(C)(C)C)=C(c2ccc(Cl)cc2C(F)(F)F)S1(=O)=O [Compound C15] | 9 | 7 | 8 | 2 | 9
5 | CCN1c2nccnc2C(OC(=O)C(C)(C)C)=C(c2c(F)ccc(Cl)c2Cl)S1(=O)=O [Compound C16] | 7 | 3 | 7 | 0 | 10
6 | CCN1c2nccnc2C(OC(=O)C(C)(C)C)=C(c2c(Cl)cccc2C(F)(F)F)S1(=O)=O [Compound C17] | 8 | 5 | 7 | 4 | 9
7 | CC(C)C(=O)OC1=C(c2ccccc2SC(F)(F)F)S(=O)(=O)N(CC(F)F)c2nccnc21 [Compound C18] | 9 | 1 | 6 | 0 | 3
8 | CCN1c2nccnc2C(OC(=O)C(C)C)=C(c2ccccc2SC(F)(F)F)S1(=O)=O [Compound C19, isobutyric acid 1-ethyl-2,2-dioxo-3-(2-trifluoromethyl-sulfanyl-phenyl)-1,2-dihydro-2-λ-6-thia-1,5,8-triaza-naphthalen-4-yl ester] | 9 | 4 | 8 | 0 | 6
9 | CC(C)(C)C(=O)OC1=C(c2c(F)ccc(Cl)c2Cl)S(=O)(=O)N(CC(F)F)c2nccnc21 [Compound C20] | 10 | 8 | 10 | 0 | 10
10 | CC(C)(C)C(=O)OC1=C(c2ccccc2OC(F)(F)F)S(=O)(=O)N(CC(F)F)c2nccnc21 [Compound C21] | 7 | 6 | 9 | 4 | 10
11 | CC(C)C(=O)OC1=C(c2ccccc2OC(F)(F)F)S(=O)(=O)N(CC(F)F)c2nccnc21 [Compound C22] | 10 | 7 | 9 | 4 | 10
